Test results published in paper PMC11210663 (Emerging Infectious Diseases, 2024).

System: influenza A(H1N1)pdm09 viruses tested during the 2022–23 influenza season
Assay type: biochemical, influenza A(H1N1)pdm09 virus
Settings: read-out: NA inhibitors median IC50 2022–2023 (reference)

## CCC(CC)[C@H](NC(C)=O)[C@@H]1[C@H](O)[C@@H](C(=O)O)C[C@H]1N=C(N)N [Peramivir, peramivir]
  IC50: 0.07 nM
